biological target: prototypic SARS-CoV-2 spike protein (Severe acute respiratory syndrome coronavirus 2, UniProt P0DTC2, K986P/R682S/R683G/R685G/V987P); experiment: biochemical; assay type: binding

SMILES	Response at 50 μM (%)	Kd [µM]
CCCCCC(=O)Oc1ccc(/N=N/c2ccc(C#N)cc2)cc1 [0054-0201]	23.5%	
CC(=O)Nc1ccc(Oc2ccc3c(c2)C(=O)N(c2cccc(C)c2)C3=O)cc1 [0584-0466]	21.5%	
CCCCCCCCOc1ccc(OC(=O)c2ccco2)cc1 [0606-5952]	24.2%	
CCCCCCCOc1ccc(C2=N/C(=C/c3ccco3)C(=O)O2)cc1 [0782-7025]	12.8	
COc1cccc(/C=C2/N=C(c3ccc(NC(C)=O)cc3)OC2=O)c1 [2082-0203]	17.9	
CCN(CC)c1ccc(/C=N/c2ccc(S(N)(=O)=O)cc2)cc1 [2166-0281]	21	
O=c1/c(=C/c2ccc(-c3cccc([N+](=O)[O-])c3)o2)sc2nc(-c3cccs3)nn12 [5629-0125]	16	
O=C(COc1ccc(-c2cnc3ccccc3n2)cc1)c1cccs1 [6420-3607]	11.9	
O=C(Oc1ccc(OC(=O)c2c(Cl)nsc2Cl)cc1)c1c(Cl)nsc1Cl [8002-0592]	14.4	
N#Cc1ccc(/N=C/c2cc([N+](=O)[O-])ccc2Cl)cc1 [AE-641/08724023]	19	
CCC(=O)Nc1ccc(C(=O)OCC(=O)c2ccc(Cl)c(Cl)c2)cc1 [AJ-292/41945407]	7.7	
O=C(COC(=O)c1ccc(Cl)cc1Cl)c1ccc(OC(=O)c2ccco2)cc1 [AK-918/41968204]	5.4	
CCOc1ccc(C(=O)COC(=O)c2ccc(NC(C)=O)cc2)cc1 [AK-918/42180074]	5.7	
CCCCOC(=O)c1ccc(OC(=O)c2cccc3ccccc23)cc1 [AN-652/43024838]	5.6	
COc1ccc(/C=C/c2nn3c(Cc4ccccc4F)nnc3s2)cc1 [AP-501/43286897]	17.8	
CC(=O)Nc1ccc(-c2cn3cc(Sc4ccccc4)ccc3n2)cc1 [AQ-776/42801545]	19.5	
Cn1c(CSc2nc3ccccc3s2)nnc1SCC(=O)NCCO [C592-3799]	25.5%	
COC(=O)c1ccc2c(c1)C(=O)/C(=C/c1ccc(-c3cccc(C(F)(F)F)c3)o1)O2 [C711-0480]	23.4%	
COc1ccc(-n2nnc3c(SCC(=O)OCc4ccccc4)ncnc32)cc1 [F0682-1220]	9	
NCc1cncc(-c2ccccc2)c1 [F1905-6556]	14.1	
O=C(CCn1ccc(=O)[nH]c1=O)NCc1cc(-c2ccccc2F)on1 [F2493-3278]	18.5	
COc1ccc(-c2cc(COC(=O)CC3CCCCC3)no2)cc1 [F2496-0660]	10.1	
O=C(OCc1cc(-c2ccc(F)cc2F)on1)c1ccc2[nH]cnc2c1 [F2496-3037]	3.6	
O=C(CSc1ccncc1)OCc1cc(-c2ccccc2F)on1 [F2496-3101]	14	
O=C(CCn1ccc(=O)[nH]c1=O)OCc1cc(-c2ccco2)on1 [F2496-3133]	21.1%	
O=C(OCc1cc(-c2cc3ccccc3o2)on1)c1ccc2[nH]cnc2c1 [F2496-3295]	16.2	
CCCOC(=O)c1ccc(OCC(=O)c2ccc(O)cc2O)cc1 [F3139-1680]	13.9	
COc1ccccc1-c1cc2c(=O)n(Cc3nc(-c4ccccn4)no3)ccn2n1 [F3382-3571]	8.9	

SMILES	Response at 50 μM (%)	Kd [µM]
CCCCOC(=O)c1ccc(NC(=O)c2cc(=O)c(OC)co2)cc1 [F5449-0108]	15.8	
O=C(CCn1ccc(=O)[nH]c1=O)N1CC(c2nc(-c3cccc(Cl)c3)no2)C1 [F6064-2602]	22.3%	
COCCNC(=O)N1CC(c2nc(-c3cccc(Cl)c3)no2)C1 [F6064-2993]	9.8	
O=C(Cc1noc2ccccc12)N1CC(c2nc(-c3ccc[nH]c3=O)no2)C1 [F6064-7687]	9.3	
O=S(=O)(NCC#CCOc1cccc(C(F)(F)F)c1)c1cccs1 [F6412-1980]	27.1%	
O=C(Cc1cccnc1)N1CC(n2cc(COc3ccccc3)nn2)C1 [F6514-4048]	10.5	
CC(=O)n1ccc2ccc(C(=O)CSc3nnc(-c4cccnc4)n3C)cc21 [K822-0272]	13.8	
CCCCC/C=C\C/C=C\CCCCCCCC(=O)O [LA, linoleic acid, reference compound]		34.2
CCCCCCCC/C=C\CCCCCCCC(=O)O [OA, oleic acid, reference compound]		28.5
COc1cccc(C(=O)COC(=O)c2ccc(O)cc2O)c1 [SPC-1]	46%	
Cc1nc(CSCCC(=O)N2CCc3ccc([N+](=O)[O-])cc32)cs1 [SPC-2]	40.2%	
Cn1c(SCc2nc(-c3ccccc3Cl)no2)nnc1-c1ccccc1F [SPC-3]	51.8%	
CN(CCc1cnn(C)c1)C(=O)c1ccc(-c2ccccc2Cl)o1 [SPC-4]	30.4%	
COc1ccc(-c2noc(CSc3nnc(-c4ccccc4)n3C)n2)cc1 [SPC-5]	46.1%	
COc1cccc(-c2noc(CCC(=O)Nc3cccnc3)n2)c1 [SPC-6]	35.9%	
Cn1c(SCc2nc(-c3ccccc3)no2)nnc1-c1ccco1 [STL416744]	30.3%	
c1ccc(-c2nnc(SCCCSc3nnc(-c4ccccc4)o3)o2)cc1 [T6013936]	17.1	
Cc1nc(C)c(-c2nnc(SCc3nc(-c4cccs4)oc3C)o2)s1 [T6037875]	18.3	
COc1ccc(-c2nnc(SCc3nc(-c4ccco4)no3)o2)cc1 [T6080959]	21.2%	
c1csc(-c2noc(CSc3nnc(NC4CC4)s3)n2)c1 [T6141058]	14.3	
Cc1ccc(-c2nc(CSc3nnc(-c4ccco4)o3)no2)cc1 [T6363271]	2.9	
Cc1cc(C(=O)CSc2nnc(-c3nnc(-c4ccccc4)o3)o2)c(C)n1C [T6388553]	18.3	
CSc1nc(N)n2nc(C(C)(C)C)cc2n1 [compound 6536]	23.3%	
Cc1nc(C(F)(F)F)ccc1-c1nnc(SCc2ccc(OC(F)(F)F)cc2)o1 [compound 9502]	26.3%	
CN(CCCO)C(=O)c1coc(COc2cccc(F)c2F)n1 [compound 11547730]	14.9	
Cc1cccc(-c2noc(CCc3nc(C4CCOC4)no3)n2)c1 (stereo not drawn) [compound 18297954]	16.5	
COc1cccc(-c2ncc(CNC(=O)CC3NC(=O)NC3=O)s2)c1 (stereo not drawn) [compound 42995570]	16	

biological target: SARS-CoV-2 spike protein (Severe acute respiratory syndrome coronavirus 2, UniProt P0DTC2, K986P/R682S/R683G/R685G/V987P); experiment: not given

SMILES	particles in the closed state (three RBD down)	particles in the open state with one RBD up [%]
O=C(O)CCCCCC(=O)N1CCc2ccc([N+](=O)[O-])cc21 [SPC-14]	about 48%	52

— article PMC9924089, “In Silico Discovery of Small Molecule Modulators Targeting the Achilles’ Heel of SARS-CoV-2 Spike Protein” (ACS Central Science, 2023)
